Results taken from patent US12628822B2, “Plant pathogen defence elicitors” (UNIVERSITÉ LIBRE DE BRUXELLES, priority 2020, dated 2026).

Columns and labels:
[1] = molecular target: beta-glucosidases enzyme from Aspergillus niger (Aspergillus niger, UniProt A2RAL4); details: 100 μM, 1 μM enzyme, 50 Celsius degree, pH 5.5; after instant (less then 5 minutes) incubation
Protocol: The volume of reaction was set at 500 μl and carried in 2 ml gas tight tubes, shacked constantly at 800 rpm, and the hydrolysis was sampled 100 μl after 5 minutes, 30 minutes and 60 minutes. The hydrolysates were analysed by HPAEC analytics according to Westereng et al. 2013 (vide supra).

Ethylene production = test: Ethylene emanation of Arabidopsis seedlings (ETD 300 detector); format: in vivo, Arabidopsis thaliana; details: 100 μM sprayed; 3 weeks in vitro seedlings
Protocol: Ethylene production was analysed in three independent experiments with the ETD 300 detector (Sensor-Sense, Nijmegen, the Netherlands) under a stop-and-flow routine where the gas from one vial accumulated in an interval of 10 min, and then flushed to the detector. Bars in FIG. 15 represent mean and standard deviation.

Chain of beta-glucosidases enzyme from Aspergillus niger (A2RAL4 20-860): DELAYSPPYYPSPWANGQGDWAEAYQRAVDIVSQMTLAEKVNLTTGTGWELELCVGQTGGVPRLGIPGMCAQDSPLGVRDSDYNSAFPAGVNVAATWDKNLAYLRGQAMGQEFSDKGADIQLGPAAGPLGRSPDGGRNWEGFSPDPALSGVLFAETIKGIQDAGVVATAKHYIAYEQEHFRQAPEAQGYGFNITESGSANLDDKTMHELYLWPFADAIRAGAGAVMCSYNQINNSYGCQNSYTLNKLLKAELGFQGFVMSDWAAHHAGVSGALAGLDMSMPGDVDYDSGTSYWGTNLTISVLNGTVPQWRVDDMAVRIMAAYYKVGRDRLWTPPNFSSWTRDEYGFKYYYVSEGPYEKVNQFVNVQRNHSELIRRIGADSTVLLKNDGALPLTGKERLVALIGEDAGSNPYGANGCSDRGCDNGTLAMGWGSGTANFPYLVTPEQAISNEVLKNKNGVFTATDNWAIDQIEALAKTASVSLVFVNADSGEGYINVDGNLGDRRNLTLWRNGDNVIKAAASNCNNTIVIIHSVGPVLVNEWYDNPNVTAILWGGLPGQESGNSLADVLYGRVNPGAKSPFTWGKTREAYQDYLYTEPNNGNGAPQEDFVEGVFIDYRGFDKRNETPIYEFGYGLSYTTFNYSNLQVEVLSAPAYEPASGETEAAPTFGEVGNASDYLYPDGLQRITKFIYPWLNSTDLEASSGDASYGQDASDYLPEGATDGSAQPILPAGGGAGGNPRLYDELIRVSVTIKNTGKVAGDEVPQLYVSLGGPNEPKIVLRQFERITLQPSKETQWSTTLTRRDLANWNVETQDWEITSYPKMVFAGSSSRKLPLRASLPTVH

Structure (SMILES) | resistance to digestion by beta-glucosidases [1] | Ethylene production versus mock-treated seedlings (Ethylene production)
O=C1C(CO)OC(OC2C(CO)OC(O)C(O)C2O)C(O)C1O (stereo not drawn) [4-keto-cellobiose] | able to resist the digestion | –
O=C(O)[C@H](O)[C@@H](O)[C@H](O[C@@H]1O[C@H](CO)[C@@H](O)[C@H](O)[C@H]1O)[C@H](O)CO [cellobionic acid, 4-O-β-D-glucopyranosyl-D-gluconic acid] | able to resist the digestion | higher
